Results reported in patent US7199130B2, “Substituted 5,6,6a, 11b-tetrahydro-7-oxa-5-aza-benzo[c]fluorene-6-carboxylic acid compounds as NMDA-antagonists” (Gruenenthal GmbH, priority 2001, dated 2007).

Key:
[1] = molecular target: T1, glycine-binding site of the NMDA receptor channel (Rattus norvegicus, UniProt P35439); assay: Receptor binding (glycine-binding site of the NMDA receptor channel), displacement of (3H)-MDL 105.519
T1 construct: from tissue; host or cells: rat brain cortex and hippocampus membrane homogenate (male Wistar)
Method: Receptor Binding (Glycine-Binding Site of the NMDA Receptor Channel)
The investigation for determining the affinity of the compounds according to the invention of the formula I towards the glycine-binding site of the NMDA receptor channel was performed on brain membrane homogenates (homogenate of the cortex and hippocampus area from male rat brain, Wistar strain) [B. M. Baron, B. W. Siegel, B. L. Harrison, R. S. Gross, C. Hawes and P. Towers, Journal of Pharmacology and Experimental Therapeutics, vol. 279, p. 62, 1996].
To this end, the cortex and hippocampus were dissected out of freshly harvested rat brains and homogenized with ice cooling in 5 mmol/l of TRIS-acetate buffer, 0.32 mol/l of sucrose, pH 7.4 (10 ml/g fresh weight) using a Potter homogenizer (Braun/Melsungen, 10 piston strokes at 500 rpm) and then centrifuged for 10 minutes at 1,000 g and 4° C. […] This membrane homogenate was used in the receptor binding test in a quantity of 100 μl per 1 ml batch (0.1 mg of protein/ml in the final batch). […] The level of non-specific binding was determined in the presence of 1 mmol/l of glycine.
In further batches, the compounds according to the invention were added in concentration series and the displacement of the radioactive ligand from its specific binding at the glycine-binding site of the NMDA receptor channel was determined. […]

[2] = system: formaldehyde-induced nociception; assay: Formaldehyde test, rat (second phase); format: in vivo; conditions: iv, male Sprague-Dawley rats, second (late) phase of formaldehyde test, pain rate vs vehicle control
Method: The investigations to determine the antinociceptive action of the compounds according to the invention of the formula I were carried by the formaldehyde test on male rats (Sprague-Dawley, 150–170 g). In the formaldehyde test, a distinction is drawn between the first (early) phase (0–15 min after formaldehyde injection) and the second (later) phase (15–60 min after formaldehyde injection) (D. Dubuisson, S. G. Dennis, Pain 4, 161–174 (1977)). […]
A nociceptive reaction was induced in the freely mobile test animals by a single, subcutaneous formaldehyde injection (50 μl, 5%) into the dorsal side of the rear hind paw, the reaction being classed according to one of the following behavioral parameters: lifting and holding up the affected paw (score 1), shaking or twitching (score 2), licking and biting (score 3). The differential behavior induced by the formaldehyde injection was recorded by observing the animals in the late phase of the formaldehyde test and assigned a variable weighting in the evaluation. Normal behavior, in which the animal places an even load on all four paws, was recorded as a score of 0. […] The nociceptive behavior was calculated as a “pain rate” (PR). […] On the basis of the calculated PR values, the effect of the substance was determined as a percentage change relative to the control. […]

## O=C(O)C1Nc2cc(Cl)cc(Cl)c2C2c3ccccc3OC12 (stereo not drawn) [Example 1, 1,3-Dichloro-5,6,6a,11b-tetrahydro-7-oxa-5-aza-benzo [c]fluorene-6-carboxylic acid]
[1]; 10 μmol/l of substance, displacement of (3H)-MDL 105.519 from specific binding, rat brain membranes
  Glycine-binding site of the NMDA receptor channel Displacement: 100%
[1]; rat cortex and hippocampus membrane homogenate, ligand 1 nmol/l (3H)-MDL 105.519, converted from IC50 by Cheng-Prussoff, mean of three independent tests
  Ki: 53 nM
[2]
  ED50: 7.27 mg/kg
